Source: patent US20250255981A1, “IMMUNOMODULATORY ANTIBODY-DRUG CONJUGATES” (Seagen Inc., priority 2022, published 2025)

Legend:
[1] = system: THP1-Dual™ cells (IRF-Lucia luciferase reporter); test: THP1-Dual™ cell reporter assay; assay type: cell-based, human; settings: free drug, 24 h (48 h elsewhere in the source)
Procedure: Potency of compounds and ADCs was evaluated using the THP1-Dual™ cells (Invivogen PN: thpd-nfis [also referred to as THP1 dual reporter cells]), which contain an IRF-Lucia luciferase reporter. Cells were cultured in RPMI-1640 (Gibco) with 10% heat-inactivated fetal bovine serum, Pen-Strep (100 U/mL-100 […], Gibco), HEPES (10 mM, Gibco)), sodium pyruvate (1 mM, Gibco), MEM non-essential amino acids (1×, Gibco), GlutaMAX (1×, Gibco), and beta-mercaptoethanol (55 μM, Gibco). Cells were plated in a 96-well flat bottom tissue culture-treated clear polystyrene plate (Corning Costar #3596) at ˜100,000 cells per well in 200 μL with the indicated concentration of the compound or ADC. The supernatant was harvested at 24 hours (compounds) or 48 hours (ADC) post plating for the reporter assay, or as indicated. To measure Lucia reporter signal, 10 µL of the supernatant was combined with 40 µL of QUANTI-Luc™ Luminescence assay reagent (Invivogen PN: rep-qlc1) in a 96-well clear flat bottom tissue culture-treated black polystyrene plate (Corning Costar #3603) and read on a Perkin Elmer Envision plate reader.

Renca tumor-bearing mice = test: In vivo cytokine assay, Renca tumor-bearing mice; set-up: species or system mouse; settings: plasma
Procedure: Cytokines were measured in mouse plasma harvested at 3, 6, 24, or 48 hours after treatment with compounds or ADCs using a Milliplex MAP mouse cytokine/chemokine magnetic bead panel assay kit (MCYTOMAG-70k custom 11-plex kit: MCP1, MIP1a, MIP1(3, TNFα, IFNγ, IL-10, IL-12p70, IL-6, IL-1β, IP10, RANTES) and analyzed using a Luminex™ MAGPIX™ Instrument System. Values that were outside of the standard curve range (<3.2 or […]) were either excluded from calculation of the mean values or, when indicated, converted to […] for calculation of the mean values.
Renca cancer cells (ATCC) were cultured in RPMI-1640 (ATCC) with 10% heat-inactivated fetal bovine serum, Pen-Strep (100 U/mL-100 μg/mL), MEM non-essential amino acids (1×), sodium pyruvate (1 mM), and L-glutamine (2 mM). Renca cancer cells were implanted (2*10^6 cells in 200 μL 25% Matrigel) subcutaneously into Balb/c female mice. In some experiments, Renca tumor cells were engineered to express the indicated murine or human target antigen.
(§1) When tumor volumes reached 100 mm^3, the mice were dosed with either compounds or ADCs by intraperitoneal or intravenous injection at the indicated dosing schedule and tumor volumes were monitored twice weekly. Compounds were formulated in 40% PEG400 in saline.
(§2) A syngeneic system was used to assess the ability of the STING agonist ADCs to induce immune responses in vivo and drive an anti-tumor immune response. The Renca system is a subcutaneous, mouse renal adenocarcinoma model. Female Balb/c mice were implanted with 2×10^6 Renca cells subcutaneously in the flank on day 0. When mean tumor size of 100 mm^3 (measured by using the formula Volume (mm^3)=0.5*Length*Width^2 where length is the longer dimension) was reached mice were randomized into treatment groups of ≥5 mice per group. Animals were then treated intraperitoneally (ADCs or compounds) or intravenously (compounds) with the indicated treatment every 7 days, for 3 doses total (or as indicated). Tumor length and width and the weight of the animals was measured throughout the study and tumor volume was calculated using the formula above. Animals were followed until the tumor volume reached ˜1000 mm^3; animals were then euthanized.

Renca cancer cells = test: In vivo anti-tumor activity, Renca tumor model; settings: Renca, q7dx3
Procedure: In some experiments, Renca tumor cells were engineered to express the indicated murine or human target antigen.
as §1, §2

[2] = system: wild type (WT) murine bone marrow-derived macrophages; test: Bone marrow-derived macrophage assay, wild type; assay type: cell-based, mouse; settings: 24 hours
Procedure: Potency of the compounds described herein was evaluated using mouse bone-marrow derived macrophages cultured from wild type (C57BL/6J, the Jackson Laboratory #000664) or STING-deficient (C57BL/6J-Sting1^gt/J, the Jackson Laboratory #017537) mice. Briefly, mouse bone marrow cells were cultured for 7-10 days in RPMI-1640 (Gibco) with 10% heat-inactivated fetal bovine serum, Pen-Strep (100 U/mL-100 […], Gibco), HEPES (10 mM, Gibco), sodium pyruvate (1 mM, Gibco), GlutaMAX (1×, Gibco), beta-mercaptoethanol ([…], Gibco) and 20-40 ng/mL murine M-CSF (Peprotech, #315-02). Cells were plated in a 96-well flat bottom tissue culture-treated clear polystyrene plate (Corning Costar #3596) at ˜100,000 cells per well in 200 μL with the indicated concentration of the compound. The supernatant was harvested at 24 hours and cytokines were measured using a Milliplex MAP mouse cytokine/chemokine magnetic bead panel assay kit (MCYTOMAG-70k custom 11-plex kit: MCP1, MIP1α, MIP1β, TNFα, IFNγ, IL-10, IL-12p70, IL-1β, IL-6, IP10, RANTES) and analyzed using a Luminex™ MAGPIX™ Instrument System.

For CCn1nc(C)cc1C(=O)Nc1nc2cc(C(N)=O)cc(OC)c2n1C/C=C/Cn1c(NC(=O)c2cc(C)nn2CC)nc2cc(C(N)=O)cc(OCCCNC)c21 [Compound 12a], the “relative potency of free drug, Lucia reporter” value [1] was “less potent than compound 1 and compound A”, the “systemic pro-inflammatory cytokine (IL-6 and TNF) production” value (Renca tumor-bearing mice) was “induced robust production of IL-6 and TNF” and the “tumor growth / anti-tumor activity” value (Renca cancer cells) was “limited anti-tumor efficacy”. The “cytokine production” value [2] was “induced cytokine production”.
